Each molecule was assayed against PD-L1 His protein / PD-1 Fc protein (Homo sapiens, UniProt Q9NZQ7) (assay: HTRF Assay (PD-1/PD-L1 interaction)). Details: PD-L1 His 6 nM, PD-1 Fc 6 nM.
Format: binding
Procedure, shortened: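 HTRF: PD-L1 His (6 nM final), compound (3-fold dilutions, 20 μM to 0.001 μM final) and PD-1 Fc (6 nM final) preincubated 15 min at room temperature. Anti-human IgG-XL665 and anti-6HIS Tb cryptate (mixed at 6.7 nM and 0.35 nM) then added for 1 h at room temperature before reading.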

PD-L1 His protein / PD-1 Fc protein, sequence (Q9NZQ7 19-238 limits assumed): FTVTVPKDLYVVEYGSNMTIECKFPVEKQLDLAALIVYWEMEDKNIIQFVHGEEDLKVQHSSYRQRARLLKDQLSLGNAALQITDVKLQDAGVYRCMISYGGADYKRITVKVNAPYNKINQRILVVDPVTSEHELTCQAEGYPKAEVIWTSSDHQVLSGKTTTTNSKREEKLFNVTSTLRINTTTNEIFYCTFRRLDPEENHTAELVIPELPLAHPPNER

SMILES | IC50
COc1nc(-c2cccc(-c3cccc(-c4ccn5c(=O)c(CN6CC(C(=O)O)C6)cnc5c4)c3Cl)c2Cl)ccc1CNCCO [Example 188, 1-((8-(2,2′-Dichloro-3′-(5-(((2-hydroxyethyl)amino)methyl)-6-methoxypyridin-2-yl)-[1,1′-biphenyl]-3-yl)-4-oxo-4H-pyrido[1,2-a]pyrimidin-3-yl)methyl)azetidine-3-carboxylic acid] | 0.1 nM
COc1nc(-c2cccc(-c3cccc(-c4ccn5c(=O)c(CNCC(=O)O)cnc5c4)c3Cl)c2Cl)ccc1CNC[C@@H]1CCC(=O)N1 [Example 189, (S)-((8-(2,2′-Dichloro-3′-(6-methoxy-5-((((5-oxopyrrolidin-2-yl)methyl)amino)methyl)pyridin-2-yl)-[1,1′-biphenyl]-3-yl)-4-oxo-4H-pyrido[1,2-a]pyrimidin-3-yl)methyl)glycine] | 0.1 nM
COc1nc(-c2cccc(-c3cccc(-c4ccn5c(=O)c(CN(C)[C@@H](C)C(=O)O)cnc5c4)c3Cl)c2Cl)ccc1CNC[C@@H]1CCC(=O)N1 [Example 190, N-((8-(2,2′-Dichloro-3′-(6-methoxy-5-(((((S)-5-oxopyrrolidin-2-yl)methyl)amino)methyl)pyridin-2-yl)-[1,1′-biphenyl]-3-yl)-4-oxo-4H-pyrido[1,2-a]pyrimidin-3-yl)methyl)-N-methyl-L-alanine] | 0.1 nM
COc1nc(-c2cccc(-c3cccc(-c4ccn5c(=O)c(CN[C@@H](CO)C(=O)O)cnc5c4)c3Cl)c2Cl)ccc1CNCCO [Example 191, ((8-(2,2′-Dichloro-3′-(5-(((2-hydroxyethyl)amino)methyl)-6-methoxypyridin-2-yl)-[1,1′-biphenyl]-3-yl)-4-oxo-4H-pyrido[1,2-a]pyrimidin-3-yl)methyl)-L-serine] | 0.1 nM
COC(=O)[C@H]1CCN(Cc2cnc3cc(-c4cccc(-c5cccc(-c6ccc(CNC[C@@H]7CCC(=O)N7)c(OC)n6)c5Cl)c4Cl)ccn3c2=O)C1 [Example 192, (S)-Methyl 1-((8-(2,2′-dichloro-3′-(6-methoxy-5-(((((S)-5-oxopyrrolidin-2-yl)methyl)amino)methyl)pyridin-2-yl)-[1,1′-biphenyl]-3-yl)-4-oxo-4H-pyrido[1,2-a]pyrimidin-3-yl)methyl)pyrrolidine-3-carboxylate] | 0.8 nM
COc1nc(-c2cccc(-c3cccc(-c4ccn5c(=O)c(CNC[C@H](C)O)c(C)nc5c4)c3Cl)c2Cl)ccc1CNC[C@@H]1CCC(=O)N1 [Example 193, 8-(2,2′-Dichloro-3′-(6-methoxy-5-(((((S)-5-oxopyrrolidin-2-yl)methyl)amino)methyl)pyridin-2-yl)-[1,1′-biphenyl]-3-yl)-3-((((S)-2-hydroxypropyl)amino)methyl)-2-methyl-4H-pyrido[1,2-a]pyrimidin-4-one] | 0.1 nM
COc1nc(-c2cccc(-c3cccc(-c4ccc5c(OC)c(CNC[C@@H]6CCC(=O)N6)cc(Cl)c5n4)c3Cl)c2Cl)ccc1CNC[C@@H]1CCC(=O)N1 [Example 194, (S)-5-((((8-Chloro-2-(2,2′-dichloro-3′-(6-methoxy-5-(((((S)-5-oxopyrrolidin-2-yl)methyl)amino)methyl)pyridin-2-yl)-[1,1′-biphenyl]-3-yl)-5-methoxyquinolin-6-yl)methyl)amino)methyl)pyrrolidin-2-one] | 26 nM
COc1nc(-c2cccc(-c3cccc(-c4ccn5c(=O)c(CNC[C@@H](C)O)cnc5c4)c3Cl)c2Cl)ccc1CNC[C@H](C)O [Example 195, 8-(2,2′-Dichloro-3′-(5-((((S)-2-hydroxypropyl)amino)methyl)-6-methoxypyridin-2-yl)-[1,1′-biphenyl]-3-yl)-3-((((R)-2-hydroxypropyl)amino)methyl)-4H-pyrido[1,2-a]pyrimidin-4-one] | 2.5 nM
COc1nc(-c2cccc(-c3cccc(-c4ccn5c(=O)c(CNC[C@H](C)O)cnc5c4)c3Cl)c2Cl)ccc1CNC[C@@H](C)O [Example 196, 8-(2,2′-Dichloro-3′-(5-((((R)-2-hydroxypropyl)amino)methyl)-6-methoxypyridin-2-yl)-[1,1′-biphenyl]-3-yl)-3-((((S)-2-hydroxypropyl)amino)methyl)-4H-pyrido[1,2-a]pyrimidin-4-one] | 2.8 nM
COc1nc(-c2cccc(-c3cccc(-c4ccn5c(=O)c(CNC[C@@H]6CCC(=O)N6)cnc5c4)c3Cl)c2Cl)ccc1CNC[C@H](C)O [Example 197, 8-(2,2′-Dichloro-3′-(5-((((S)-2-hydroxypropyl)amino)methyl)-6-methoxypyridin-2-yl)-[1,1′-biphenyl]-3-yl)-3-(((((S)-5-oxopyrrolidin-2-yl)methyl)amino)methyl)-4H-pyrido[1,2-a]pyrimidin-4-one] | 0.2 nM
COc1nc(-c2cccc(-c3cccc(-c4ccn5c(=O)c(CNC[C@@H]6CCC(=O)N6)cnc5c4)c3Cl)c2Cl)ccc1CNC[C@@H](C)O [Example 198, 8-(2,2′-Dichloro-3′-(5-((((R)-2-hydroxypropyl)amino)methyl)-6-methoxypyridin-2-yl)-[1,1′-biphenyl]-3-yl)-3-(((((S)-5-oxopyrrolidin-2-yl)methyl)amino)methyl)-4H-pyrido[1,2-a]pyrimidin-4-one] | 0.3 nM
CNC(=O)CN(C)Cc1cnc2cc(-c3cccc(-c4cccc(-c5ccc(CNC[C@@H]6CCC(=O)N6)c(OC)n5)c4Cl)c3Cl)ccn2c1=O [Example 200, (S)-2-(((8-(2,2′-Dichloro-3′-(6-methoxy-5-((((5-oxopyrrolidin-2-yl)methyl)amino)methyl)pyridin-2-yl)-[1,1′-biphenyl]-3-yl)-4-oxo-4H-pyrido[1,2-a]pyrimidin-3-yl)methyl)(methyl)amino)-N-methylacetamide] | 0.1 nM
COc1nc(-c2cccc(-c3cccc(-c4ccn5c(=O)c(CNC[C@@H]6CCC(=O)N6)c(OC)nc5c4)c3Cl)c2Cl)ccc1CNC[C@@H]1CCC(=O)N1 [Example 201, 8-(2,2′-Dichloro-3′-(6-methoxy-5-(((((S)-5-oxopyrrolidin-2-yl)methyl)amino)methyl)pyridin-2-yl)-[1,1′-biphenyl]-3-yl)-2-methoxy-3-(((((S)-5-oxopyrrolidin-2-yl)methyl)amino)methyl)-4H-pyrido[1,2-a]pyrimidin-4-one] | 100 nM
CNC(=O)CNCc1cnc2cc(-c3cccc(-c4cccc(-c5ccc(CNC[C@@H]6CCC(=O)N6)c(OC)n5)c4Cl)c3Cl)ccn2c1=O [Example 202, (S)-2-(((8-(2,2′-Dichloro-3′-(6-methoxy-5-((((5-oxopyrrolidin-2-yl)methyl)amino)methyl)pyridin-2-yl)-[1,1′-biphenyl]-3-yl)-4-oxo-4H-pyrido[1,2-a]pyrimidin-3-yl)methyl)amino)-N-methylacetamide] | 0.1 nM
COc1c(CNC[C@@H]2CCC(=O)N2)cc(Cl)c2nc(-c3cccc(-c4cccc(-c5ccn6c(=O)c(CNC[C@@H]7CCC(=O)N7)cnc6c5)c4Cl)c3Cl)ccc12 [Example 203, 8-[2-chloro-3-[2-Chloro-3-[8-chloro-5-methoxy-6-[[[(2S)-5-oxopyrrolidin-2-yl]methylamino]methyl]-2-quinolyl]phenyl]phenyl]-3-[[[(2S)-5-oxopyrrolidin-2-yl]methylamino]methyl] pyrido[1,2-a]pyrimidin-4-one] | 150 nM
COc1nc(-c2cccc(-c3cccc(-c4ccn5c(=O)c(CN[C@H]6C[C@](C)(O)C6)c(C)nc5c4)c3Cl)c2Cl)ccc1CNC[C@@H]1CCC(=O)N1 [Example 204, 8-(2,2′-Dichloro-3′-(6-methoxy-5-(((((S)-5-oxopyrrolidin-2-yl)methyl)amino)methyl)pyridin-2-yl)-[1,1′-biphenyl]-3-yl)-3-((((1r,3r)-3-hydroxy-3-methylcyclobutyl)amino)methyl)-2-methyl-4H-pyrido[1,2-a]pyrimidin-4-one] | 0.1 nM
COc1nc(-c2cccc(-c3cccc(-c4ccn5c(=O)c(CN[C@H]6C[C@](C)(O)C6)c(C)nc5c4)c3Cl)c2Cl)ccc1CN[C@H]1C[C@](C)(O)C1 [Example 205, 8-(2,2′-Dichloro-3′-(5-((((1r,3r)-3-hydroxy-3-methylcyclobutyl)amino)methyl)-6-methoxypyridin-2-yl)-[1,1′-biphenyl]-3-yl)-3-((((1r,3r)-3-hydroxy-3-methylcyclobutyl)amino)methyl)-2-methyl-4H-pyrido[1,2-a]pyrimidin-4-one] | 0.9 nM
COc1nc(-c2cccc(-c3cccc(-c4ccn5c(=O)c(CNCCN6CCNC6=O)cnc5c4)c3Cl)c2Cl)ccc1CNC[C@@H]1CCC(=O)N1 [Example 207, (S)-8-(2,2′-Dichloro-3′-(6-methoxy-5-((((5-oxopyrrolidin-2-yl)methyl)amino)methyl)pyridin-2-yl)-[1,1′-biphenyl]-3-yl)-3-(((2-(2-oxoimidazolidin-1-yl)ethyl)amino)methyl)-4H-pyrido[1,2-a]pyrimidin-4-one] | 0.3 nM
COc1nc(-c2cccc(-c3cccc(-c4ccn5c(=O)c(CNC[C@@H]6CCC(=O)N6)cnc5c4)c3C(F)(F)F)c2Cl)ccc1CNC[C@@H]1CCC(=O)N1 [Example 208, 8-(2′-Chloro-3′-(6-methoxy-5-(((((S)-5-oxopyrrolidin-2-yl)methyl)amino)methyl)pyridin-2-yl)-2-(trifluoromethyl)-[1,1′-biphenyl]-3-yl)-3-(((((S)-5-oxopyrrolidin-2-yl)methyl)amino)methyl)-4H-pyrido[1,2-a]pyrimidin-4-one] | 38 nM
CNC(=O)C(C)(C)NCc1cnc2cc(-c3cccc(-c4cccc(-c5ccc(CNC[C@@H]6CCC(=O)N6)c(OC)n5)c4Cl)c3Cl)ccn2c1=O [Example 209, (S)-2-(((8-(2,2′-Dichloro-3′-(6-methoxy-5-((((5-oxopyrrolidin-2-yl)methyl)amino)methyl)pyridin-2-yl)-[1,1′-biphenyl]-3-yl)-4-oxo-4H-pyrido[1,2-a]pyrimidin-3-yl)methyl)amino)-N,2-dimethylpropanamide] | 0.1 nM

Reference: US20230143612A1 (Arbutus Biopharma Corporation, priority 2020, published 2023)
